The text below walks through data of ChEMBL document CHEMBL3627616, “New multifunctional melatonin-derived benzylpyridinium bromides with potent cholinergic, antioxidant, and neuroprotective properties as innovative drugs for Alzheimer's disease” (Eur J Med Chem, 2015).

Series [1] addresses T1, Acetylcholinesterase (Homo sapiens, UniProt P22303). Kind of series: Inhibition of human recombinant AChE using acetylthiocholine iodide as substrate preincubated for 5 mins followed by substrate addition by Ellman's method.
The species named for series [2] is Homo sapiens. Kind of series: Selectivity ratio of IC50 for human serum BuChE to IC50 for human recombinant AChE.
The nature of series [3]: Antioxidant activity assessed as trolox equivalent of AAPH radical scavenging activity preincubated for 15 mins followed by addition of AAPH solution measured for 80 mins by ORAC-FL method. In kind it is physicochemical.
In series [4] the target is Cholinesterase (Homo sapiens, UniProt P06276).
Description: Inhibition of human serum BuChE using S-butyrylthiocholine iodide as substrate preincubated for 5 mins followed by substrate addition by Ellman's method
Series [5] relates to SH-SY5Y. The series is described as follows: Neuroprotective activity against H2O2-induced oxidative stress-associated death in human SH-SY5Y cells assessed as increase in cell viability at 10 uM incubated for 24 hrs prior to H2O2 challenge measured after 24 hrs by MTT assay. In kind it is functional, cell-based.
A short description of series [6]: Antioxidant activity assessed as trolox equivalent of AAPH radical scavenging activity. In kind it is physicochemical.
In series [7] the target is T1, Acetylcholinesterase. Kind of series: Potency index, ratio of IC50 for donepezil to IC50 for test compound for inhibition of human recombinant AChE.
Series [8] deals with SH-SY5Y. The series is described as follows: Cytotoxicity against human SH-SY5Y cells assessed as cell survival at 1 to 50 uM after 24 hrs by MTT assay. In kind it is cell-based.
Series [9] relates to SH-SY5Y. Kind of series: Neuroprotective activity against H2O2-induced oxidative stress-associated death in human SH-SY5Y cells assessed as increase in cell viability at 1 to 10 uM incubated for 24 hrs prior to H2O2 challenge measured after 24 hrs by MTT assay. In kind it is functional, cell-based. For orientation: Formazan colour is commonly taken as a measure of viable cells.

Series [10] concerns the target T1, Acetylcholinesterase. The settings on record: 0.05 to 0.2 uM.

Calls of active or inactive are those of the source. No cut-off for these calls is given here.

Chain of Cholinesterase (P06276 whole entry): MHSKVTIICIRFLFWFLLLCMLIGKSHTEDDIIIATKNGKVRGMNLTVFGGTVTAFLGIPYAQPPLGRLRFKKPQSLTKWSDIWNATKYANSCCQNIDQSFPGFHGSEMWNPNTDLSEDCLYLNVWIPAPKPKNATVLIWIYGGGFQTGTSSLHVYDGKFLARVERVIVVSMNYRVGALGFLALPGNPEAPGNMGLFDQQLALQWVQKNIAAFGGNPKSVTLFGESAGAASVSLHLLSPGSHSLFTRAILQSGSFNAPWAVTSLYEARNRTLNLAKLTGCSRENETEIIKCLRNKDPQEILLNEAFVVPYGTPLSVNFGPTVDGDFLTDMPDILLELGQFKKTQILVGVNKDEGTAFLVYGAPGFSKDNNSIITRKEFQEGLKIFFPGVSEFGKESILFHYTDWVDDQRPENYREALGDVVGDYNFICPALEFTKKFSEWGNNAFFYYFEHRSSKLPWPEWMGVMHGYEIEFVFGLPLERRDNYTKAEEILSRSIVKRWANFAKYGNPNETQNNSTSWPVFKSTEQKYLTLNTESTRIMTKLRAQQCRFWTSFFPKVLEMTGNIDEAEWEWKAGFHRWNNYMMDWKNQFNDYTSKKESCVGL
T1 sequence (P22303 whole entry): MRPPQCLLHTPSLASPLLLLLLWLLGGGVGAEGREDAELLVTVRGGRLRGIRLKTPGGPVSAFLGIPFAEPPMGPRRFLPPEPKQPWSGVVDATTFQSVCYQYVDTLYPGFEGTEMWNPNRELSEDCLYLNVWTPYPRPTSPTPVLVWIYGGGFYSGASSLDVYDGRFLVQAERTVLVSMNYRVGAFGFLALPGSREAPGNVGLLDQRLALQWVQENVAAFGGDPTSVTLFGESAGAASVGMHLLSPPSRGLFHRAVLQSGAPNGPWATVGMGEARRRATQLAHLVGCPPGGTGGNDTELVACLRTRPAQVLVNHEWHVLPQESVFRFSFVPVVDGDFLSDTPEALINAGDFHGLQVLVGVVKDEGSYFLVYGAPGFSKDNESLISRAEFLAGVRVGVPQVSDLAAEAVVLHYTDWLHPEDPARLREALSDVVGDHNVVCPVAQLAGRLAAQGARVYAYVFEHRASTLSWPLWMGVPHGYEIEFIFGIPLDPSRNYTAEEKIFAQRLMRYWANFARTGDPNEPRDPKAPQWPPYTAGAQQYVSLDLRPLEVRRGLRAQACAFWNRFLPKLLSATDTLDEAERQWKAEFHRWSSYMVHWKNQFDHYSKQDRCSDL

Broadly, the IC50 is the concentration that gives 50% inhibition. Turning to `O=C(NCCc1c[nH]c2ccccc12)c1ccc[n+](Cc2ccccc2F)c1.[Br-]`, the IC50 was determined as 28.6 µM in series [1] and 0.34 µM in series [4]. Also, in series [2], the Ratio IC50 amounted to 0.01. Further, the Activity in [3] is 1.47 umolequiv/umol.
The like results for `COc1ccc2[nH]cc(CCNC(=O)CCc3cc[n+](Cc4ccc(F)cc4)cc3)c2c1.[Br-]` were, in that order, 0.58 µM, 0.65 µM, 1.1 and 2.49 umolequiv/umol.
As to `O=C(NCCc1c[nH]c2ccccc12)c1ccc[n+](Cc2ccccc2)c1.[Br-]`, the 50% inhibitory concentration (IC50) was 30.5 µM in series [1] and 0.28 µM in series [4]. Moreover, the Ratio IC50 in [2] came out at 0.009. In series [3], the Activity worked out at 1.49 umolequiv/umol.
Turning to `N#Cc1ccc(C[n+]2ccc(C(=O)NCCc3c[nH]c4ccccc34)cc2)cc1.[Br-]`, the IC50 in [1] turned out to be 22.9 µM. For the same molecule, the Ratio IC50 in [2] is over 4.4. Besides, in series [3], the Activity worked out at 1.56 umolequiv/umol.
In the case of `O=C(NCCc1c[nH]c2ccccc12)c1cc[n+](Cc2cccc(F)c2)cc1.[Br-]`, the IC50 in series [1] turned out to be 3.9 µM; in series [4], 5.1 µM. In series [2], the Ratio IC50 is 1.3. In series [3], the Activity was 1.41 umolequiv/umol.
For `Cc1ccc(C[n+]2ccc(C(=O)NCCc3c[nH]c4ccccc34)cc2)cc1.[Br-]`, the IC50 was 5.7 µM in series [1] and 8.9 µM in series [4]. Further, in series [2], the Ratio IC50 was 1.6. The Activity in series [3] is on record as 1.72 umolequiv/umol.
For `COc1ccc2[nH]cc(CCNC(=O)CCc3cc[n+](Cc4ccccc4F)cc3)c2c1.[Br-]`, the results for the IC50 in series [1] and in series [4] were 0.53 µM and 0.86 µM, respectively. Also, the Ratio IC50 in series [2] was found to be 1.6. Moreover, the Activity in series [3] is 2.51 umolequiv/umol.
The like results for `O=C(NCCc1c[nH]c2ccccc12)c1cc[n+](Cc2ccccc2F)cc1.[Br-]` were, in that order, 3.2 µM, 4.1 µM, 1.3 and 1.14 umolequiv/umol.
Consider `COc1ccc2[nH]cc(CCNC(C)=O)c2c1` [MELATONIN], for which the Activity in series [3] is listed as 2.34 umolequiv/umol; in [6], 2 umolequiv/umol. Besides, the outcome in [5] was Active.
As to `COc1ccc2[nH]cc(CCNC(=O)c3cc[n+](Cc4cccc(F)c4)cc3)c2c1.[Br-]`, the IC50 in [1] amounted to 3.8 µM; in series [4], 7.9 µM. Also, the Ratio IC50 in series [2] amounted to 2.1. For the same molecule, the Activity in series [3] is 1.87 umolequiv/umol.
The matching figures for `COc1ccc2[nH]cc(CCNC(=O)CCc3cc[n+](Cc4cccc(F)c4)cc3)c2c1.[Br-]`: 0.44 µM, 0.72 µM, 1.6 and 2.45 umolequiv/umol.
The like results for `COc1ccc2[nH]cc(CCNC(=O)c3cc[n+](Cc4ccccc4F)cc3)c2c1.[Br-]` were, in that order, 3.3 µM, 6.8 µM, 2.1 and 2.02 umolequiv/umol.
The like results for `COc1ccc2[nH]cc(CCNC(=O)c3cc[n+](Cc4ccc(F)cc4)cc3)c2c1.[Br-]` were, in that order, 5.1 µM, 7.5 µM, 1.5 and 2.09 umolequiv/umol.
With `COc1ccc2[nH]cc(CCNC(=O)c3cc[n+](Cc4ccc(OC(=O)N(C)C)cc4)cc3)c2c1.[Br-]`, the IC50 in [1] came to 1.3 µM; in series [4], 0.08 µM. Besides, the Ratio IC50 in series [2] was 0.06; in [7], 70. Besides, the Activity is 2.04 umolequiv/umol in [3] and “Non-toxic” in [8]. Moreover, in series [9], the result was Active.
As for `O=C(NCCc1c[nH]c2ccccc12)c1cc[n+](Cc2ccc(F)cc2)cc1.[Br-]`, the IC50 in series [1] was 3.4 µM; in series [4] it was 4.8 µM. Further, the Ratio IC50 in [2] stood at 1.4. For the same molecule, in series [3], the Activity came out at 1.32 umolequiv/umol.
In the case of `COc1ccc2[nH]cc(CCNC(=O)/C=C/c3cc[n+](Cc4ccc(F)cc4)cc3)c2c1.[Br-]`, the IC50 in series [1] was 0.21 µM; in series [4], 0.71 µM. Moreover, the Ratio IC50 in [2] stood at 3.4. Besides, the Activity in [3] was found to be 3.51 umolequiv/umol.
For `COc1ccc2[nH]cc(CCNC(=O)/C=C/c3cc[n+](Cc4cccc(F)c4)cc3)c2c1.[Br-]`, the IC50 in series [1] was 0.11 µM; in series [4], 1.1 µM. In addition, in series [2], the Ratio IC50 worked out at 10. In addition, the Activity in series [3] is reported as 3.41 umolequiv/umol; in series [8], “Non-toxic”. Further, in [9], the outcome was Active. Further, the inhibition result in series [10] was “Active”.
On to `Cc1cccc(C[n+]2ccc(C(=O)NCCc3c[nH]c4ccccc34)cc2)c1.[Br-]`, for which the IC50 in series [1] worked out at 2.7 µM; in series [4] it was 5.8 µM. In addition, the Ratio IC50 in series [2] came to 2.1. In series [3], the Activity was 1.36 umolequiv/umol.
The matching figures for `COc1ccc2[nH]cc(CCNC(=O)/C=C/c3cc[n+](Cc4ccccc4F)cc3)c2c1.[Br-]`: 0.26 µM, 2.3 µM, 8.8 and 3.66 umolequiv/umol.
Regarding `O=C(NCCc1c[nH]c2ccccc12)c1cc[n+](Cc2ccccc2)cc1.[Br-]`, the IC50 in series [1] stood at 4.2 µM; in [4], 2.8 µM. Also, the Ratio IC50 in series [2] worked out at 0.67. Moreover, in [3], the Activity stood at 1.29 umolequiv/umol.
